Tested on: patients suffering from moderate to severe AD
Assay: MZ-9605 (Therapy Example 1): 28-week double-blind placebo-controlled trial of memantine 20 mg/day
Type: in vivo, human
Method: Patients suffering from moderate to severe AD were randomized to placebo or 20 mg memantine daily for 28 weeks. Primary efficacy variables were the Clinician's Interview-Based Impression of Change plus caregiver input (CIBIC-Plus) and the Alzheimer's Disease Cooperative Study Activities of Daily Living Inventory modified for severe dementia (ADCS-ADL). Secondary efficacy variables included the Severe Impairment Battery (SIB) and Neuropsychiatric Inventory (NPI). Treatment differences between baseline and endpoint were assessed. Incomplete observations were imputed using the most recent previous observation (last observation carried forward—LOCF). Results were also analyzed using only the observed values, where missing values were not replaced (Observed Cases (OC) analysis). AD patients (N=252), (67 percent female, mean age=76 years), were randomized from 32 U.S. centers. Of these, 181 completed the study (72 percent) and were evaluated at week 28. Seventy-one patients discontinued treatment prematurely (42 placebo, 29 memantine). Change on the CIBIC-Plus favored memantine over placebo (P=0.06 LOCF, P=0.03 OC) Memantine-treated patients deteriorated less than placebo treated patients on the ADCS-ADL (P=0.02 LOCF, P=0.003 OC) and the SBI (P=<0.001 LOCF, P=0.002 OC). NPI change scores at week 28 were statistically significant. Depending on the type of analysis, this benefit was found in two domains: agitation (p=0.008 LOCF) and delusion (p=0.04 LOCF) or for agitation, only (p=0.023 OC). The finding for agitation also occurred in the dichotomised analyses for memantine-treated patients with and without behavioural symptoms at baseline. […] This study supports the antiglutamatergic treatment approach in moderate to severe AD, a phase associated with patient distress and caregiver burden, for which other treatments are not available and the treatment of behavioral disorders associated therewith.
Community residing patients at least 50 years old with probable AD according to Diagnostic and Statistical Manual of Mental Disorders (DSM-IV) (American Psychiatric Association. Diagnostic and statistical manual of mental disorders. 4th ed. Washington: American Psychiatric Association; 1994.) and National Institute of Neurologic and Communicative Disorders and Stroke and AD and Related Disorders Association (NINCDS-ADRDA) criteria (McKhann G, Drachman D, Folstein M, Katzman R, Price D, Stadlan E M, Clinical diagnosis of Alzheimer's disease: report of the NINCDS-ADRDA Work Group under the auspices of Department of Health and Human Services Task Force on Alzheimer's Disease. Neurology 1984;34:939-44) were recruited. Eligibility criteria included: baseline Mini-Mental State Examination (MMSE) scores of 3-14 (Folstein M F, Folstein, S E, McHugh, P R, Mini-mental state. A practical method for grading the cognitive state of patients for the clinician. J Psychiat Res 1975;12:189-98.), stage 5 or 6 on the Global Deterioration Scale (GDS) (Reisberg B, Ferris S H, de Leon M J, Crook T, The Global Deterioration Scale for assessment of primary degenerative dementia. Am J Psychiatry 1982;139:1136-9.), and a stage of 6a or greater on the Functional Assessment Staging (FAST) (Sclan S G, Reisberg B, Functional assessment staging (FAST) in Alzheimer's disease: reliability, validity, and ordinality. Int Psychogeriatr 1992;4 Suppl 1:55-69.) instrument, signifying the presence of dementia-related deficits in the ability to perform one or more basic activities of daily living. Patients had reliable caregivers and recent (within 12 months) computed tomography (CT) or magnetic resonance imaging (MRI). […]

[1] = MZ-9605, week 28, ITT LOCF, NPI total score <75%
[2] = MZ-9605, week 28, ITT LOCF, NPI total score ≧=75% (top quartile)
[3] = MZ-9605, week 28, ITT LOCF, antipsychotics usage “YES” (N = n)
[4] = MZ-9605, week 28, ITT LOCF, antipsychotics usage “YES” (N = y)
[5] = MZ-9605, week 28, ITT LOCF, baseline NPI agitation score <4
[6] = MZ-9605, week 28, ITT LOCF, baseline NPI agitation score ≧=4
[7] = MZ-9605, week 28, ITT LOCF, overall

SMILES: CC12CC3CC(C)(C1)CC(N)(C3)C2 [memantine, 1-amino-3,5-dimethyl adamantane]
- adverse events (20 mg/day, 28 weeks): not associated with significant adverse events
- patients who experienced an adverse event of agitation (20 mg/day, 28 weeks): 18%
- premature discontinuations due to adverse events (20 mg/day, prior to week 28): 10%
- Change (baseline to week 28) in NPI domain Aberr. Mot. Behavior (ITT, OC): 0.01
- Change (baseline to week 28) in NPI domain Agitation/Aggression (ITT, OC): −0.01
- Change (baseline to week 28) in NPI domain Anxiety (ITT, OC): 0.51
- Change (baseline to week 28) in NPI domain Apathy/Indifference (ITT, OC): −0.25
- Change (baseline to week 28) in NPI domain App./Eating Change (ITT, OC): 0.00
- Change (baseline to week 28) in NPI domain Delusions (ITT, OC): −0.38
- Change (baseline to week 28) in NPI domain Depression/Dysphoria (ITT, OC): 0.00
- Change (baseline to week 28) in NPI domain Disinhibition (ITT, OC): −0.53
- Change (baseline to week 28) in NPI domain Elation/Euphoria (ITT, OC): 0.18
- Change (baseline to week 28) in NPI domain Hallucinations (ITT, OC): 0.47
- Change (baseline to week 28) in NPI domain Irritabililty/Lability (ITT, OC): 0.04
- Change (baseline to week 28) in NPI domain Night-time Behavior (ITT, OC): 0.05
- ADCS-ADL (change) LS Mean Diff., MEM v. PLA [1]: 1.48
- ADCS-ADL (change) mean [1]: −3.4
- CIBIC-PLUS Raw Mean Diff., MEM v. PLA [1]: −0.2
- CIBIC-PLUS mean [1]: 4.4
- SIB (change) LS Mean Diff., MEM v. PLA [1]: 3.36
- SIB (change) mean [1]: −5.6
- ADCS-ADL (change) LS Mean Diff., MEM v. PLA [2]: −3.47
- ADCS-ADL (change) mean [2]: −2.1
- CIBIC-PLUS Raw Mean Diff., MEM v. PLA [2]: −0.4
- CIBIC-PLUS mean [2]: 4.6
- SIB (change) LS Mean Diff., MEM v. PLA [2]: 13.3
- SIB (change) mean [2]: 0.03
- ADCS-ADL (change) LS Mean Diff., MEM v. PLA [3]: 1.9
- ADCS-ADL (change) mean [3]: −2.7
- CIBIC-PLUS Raw Mean Diff., MEM v. PLA [3]: −0.22
- CIBIC-PLUS mean [3]: 4.47
- SIB (change) LS Mean Diff., MEM v. PLA [3]: 5.1
- SIB (change) mean [3]: −4.1
- ADCS-ADL (change) LS Mean Diff., MEM v. PLA [4]: 0.9
- ADCS-ADL (change) mean [4]: −5.5
- CIBIC-PLUS Raw Mean Diff., MEM v. PLA [4]: −0.29
- CIBIC-PLUS mean [4]: 4.62
- SIB (change) LS Mean Diff., MEM v. PLA [4]: 10.6
- SIB (change) mean [4]: −2.5
- ADCS-ADL (change) LS Mean Diff., MEM v. PLA [5]: 1.18
- ADCS-ADL (change) mean [5]: −3.5
- CIBIC-PLUS Raw Mean Diff., MEM v. PLA [5]: −0.2
- CIBIC-PLUS mean [5]: 4.5
- SIB (change) LS Mean Diff., MEM v. PLA [5]: 3.75
- SIB (change) mean [5]: −4.8
- ADCS-ADL (change) LS Mean Diff., MEM v. PLA [6]: 4.97
- ADCS-ADL (change) mean [6]: −1.2
- CIBIC-PLUS Raw Mean Diff., MEM v. PLA [6]: −0.5
- CIBIC-PLUS mean [6]: 4.4
- SIB (change) LS Mean Diff., MEM v. PLA [6]: 14.05
- SIB (change) mean [6]: −0.5
- ADCS-ADL (change) LS Mean Diff., MEM v. PLA (MZ-9605, week 28, ITT LOCF, baseline NPI agitation score ≧=4, listed as MEM): −4.97
- ADCS-ADL (change) LS Mean Diff., MEM v. PLA [7]: 2.06
- ADCS-ADL (change) LS mean [7]: −3.02
- CIBIC-PLUS LS mean [7]: 4.48
- CIBIC-PLUS Raw Mean Diff., MEM v. PLA [7]: −0.25
- SIB (change) LS Mean Diff., MEM v. PLA [7]: 5.91
- SIB (change) LS mean [7]: −3.93
- CIBIC-Plus ratings, mean difference memantine v. placebo (at endpoint (LOCF)): 0.3
- ADCS-ADL total score, mean difference memantine v. placebo (endpoint, LOCF): −2.1
- SIB total score, mean difference memantine v. placebo (endpoint, LOCF): −2.1
- ADCS-ADL total score, mean difference memantine v. placebo (week 28, OC): −3.4
- CIBIC-Plus ratings, mean difference memantine v. placebo (week 28, OC): 0.4
- SIB total score, mean difference memantine v. placebo (week 28, OC): −3.4

Reference: patent publication US20050203191A1, “1-Aminocyclohexane derivatives for the treatment of agitation and other behavioral disorders, especially those associated with alzheimer's disease” (priority 2004, published 2005)
